# Test results published in patent publication US9675064B2, “Microbicidal composition” (Dow Global Technologies LLC, priority 2013, dated 2017).
# Where two headings read alike, the source gives them in different places.
# Legend:
# Format in all cases: cell-based
# any organism tested = assay: Synergy index test, summary statements over the organisms tested; conditions: for Synergy of biocide paired with surfactant: against any organism tested; for ratio of surfactant to biocide where synergy was observed: not commercially relevant (less biocide relative to surfactant)
# Procedure: Surfactants and biocides were evaluated for synergy by determining the synergy index (S.I.) of the combination. Synergy index was calculated based on minimum inhibitory concentrations (MIC) of two antimicrobial compounds (A and B) alone and in combinations. The tests organisms were Gram negative bacteria (Pseudomonas aeruginosa ATCC #15442), Gram positive bacteria (Staphylococcus aureus ATCC #6538), yeast (Candida albicans ATCC#10203) and mold (Aspergillus niger ATCC#16404). Contact time for the bacteria was 24 and 48 hours, yeast was 48 and 72 hrs, and 3 and 7 days for mold. The test was carried out in 96 well microtiter plates. R^1O(CH2CH(CH3)O)5(CH2CH2O)9H, Surf. A where R^1 is 2-ethylhexyl R^2O(CH2CH(CH3)O)3(CH2CH2O)5H Surf. D R^2O(CH2CH(CH3)O)3(CH2CH2O)7H Surf. E In Surf. D and Surf. E, R^2 is a mixture of C8-C14 linear alkyl groups (70% C8-C10 linear alkyl and 30% C12-C14 linear alkyl)
# SI is calculated as follows: Ca/CA+Cb/CB=Synergy Index (“SI”)
# Wherein: • CA=concentration of compound A in ppm, acting alone, which produced an end point (MIC of Compound A). • Ca=concentration of compound A in ppm, in the mixture, which produced an end point. • CB=concentration of compound B in ppm, acting alone, which produced an end point (MIC of Compound B). • Cb=concentration of compound B in ppm, in the mixture, which produced an end point. When the sum of Ca/CA and Cb/CB is greater than one, antagonism is indicated.
# [1] = test system: Staphylococcus aureus ATCC #6538; assay: MIC / synergy index test in 96 well microtiter plates, Gram positive bacteria; conditions: for CB (MIC of compound B acting alone): S. aureus ATCC# 6538, 24 hrs
# Procedure: (§1) Surfactants and biocides were evaluated for synergy by determining the synergy index (S.I.) of the combination. Synergy index was calculated based on minimum inhibitory concentrations (MIC) of two antimicrobial compounds (A and B) alone and in combinations. The tests organisms were Gram negative bacteria (Pseudomonas aeruginosa ATCC #15442), Gram positive bacteria (Staphylococcus aureus ATCC #6538), yeast (Candida albicans ATCC#10203) and mold (Aspergillus niger ATCC#16404). Contact time for the bacteria was 24 and 48 hours, yeast was 48 and 72 hrs, and 3 and 7 days for mold. The test was carried out in 96 well microtiter plates. […] E In Surf. D and Surf. […] [table] […] SI is calculated as follows: Ca/CA+Cb/CB=Synergy Index (“SI”) Wherein: • CA=concentration of compound A in ppm, acting alone, which produced an end point (MIC of Compound A). • Ca=concentration of compound A in ppm, in the mixture, which produced an end point. • CB=concentration of compound B in ppm, acting alone, which produced an end point (MIC of Compound B). • Cb=concentration of compound B in ppm, in the mixture, which produced an end point. When the sum of Ca/CA and Cb/CB is greater than one, antagonism is indicated.
# [2] = test system: Pseudomonas aeruginosa ATCC #15442; assay: MIC / synergy index test in 96 well microtiter plates, Gram negative bacteria
# Procedure: as §1
# [3] = test system: Aspergillus niger ATCC#16404; assay: MIC / synergy index test in 96 well microtiter plates, mold; conditions: A. niger ATCC#16404, 3rd day, Media PDB; for MIC: Aspergillus niger, ATCC16404, read-out: CB (MIC of compound B acting alone), B: Potassium Sorbate
# Procedure: as §1
# [4] = test system: Candida albicans ATCC#10203; assay: MIC / synergy index test in 96 well microtiter plates, yeast; conditions: for MIC: Candida albicans, ATCC10203, 48 h
# Procedure: as §1
smiles,measurement,setting,value
CCC12COCN1COC2 [CS-1246],Synergy of biocide paired with surfactant,any organism tested; paired with Surf. D,no synergy
CCCCCCCCCC[N+](C)(C)CCCCCCCCCC.[Cl-] [DIDAC],ratio of surfactant to biocide where synergy was observed,any organism tested; combination with Surf. A,1:0.2 or greater
same,ratio of surfactant to biocide where synergy was observed,any organism tested; combination with Surf. D,1:0.2 or greater
CC1(C)C(=O)N(CO)C(=O)N1CO [DMDMH],Synergy of biocide paired with surfactant,any organism tested; paired with Surf. D,no synergy
same,Synergy of biocide paired with surfactant,any organism tested; paired with Surf. E,no synergy
CCCCNC(=O)OCC#CI [IPBC],ratio of surfactant to biocide where synergy was observed,any organism tested; combination with Surf. A,1:0.2 or greater
same,ratio of surfactant to biocide where synergy was observed,any organism tested; combination with Surf. D,1:0.05 or worse
same,ratio of surfactant to biocide where synergy was observed,any organism tested; combination with Surf. E,1:0.2 or greater
Cn1sc2ccccc2c1=O [MBIT],ratio of surfactant to biocide where synergy was observed,any organism tested; combination with Surf. D,1:0.05 or worse
CCCCCCCCn1sccc1=O [OIT],ratio of surfactant to biocide where synergy was observed,any organism tested; combination with Surf. D,1:0.2 or greater
same,ratio of surfactant to biocide where synergy was observed,any organism tested; combination with Surf. E,1:0.2 or greater
Oc1ccccc1-c1ccccc1 [OPP],Synergy of biocide paired with surfactant,any organism tested; paired with Surf. D,no synergy
C/C=C/C=C/C(=O)[O-].[K+] [Potassium Sorbate],CB (MIC of compound B acting alone),"[1]; B: Potassium Sorbate, Media 1/10TSB, inoculum 1.808E+06 CFU/ml",30000 ppm
same,MIC,"[1]; Staphylococcus aureus, ATCC6538, 24 h, read-out: CB (MIC of compound B acting alone)",30000 mg/L
same,MIC,"[2]; Pseudomonas aeruginosa, ATCC15442, 24 h, read-out: CB (MIC of compound B acting alone)",15000 mg/L
same,MIC,[3]; inoculum 1.156E+06 (table with Surf. D),6000 mg/L
same,MIC,[3]; inoculum 1.156E+06 CFU/ml (table with Surf. A),1000 mg/L
same,MIC,[3]; inoculum 1.156E+06 CFU/ml (table with Surf. E),1000 mg/L
same,MIC,"[4]; read-out: CB (MIC of compound B acting alone), B: Potassium Sorbate, C. albicans ATCC#10203, Media PDB, inoculum 1.156E+06 CFU/ml",800 mg/L
same,MIC,"[4]; read-out: CB (MIC of compound B acting alone), B: Potassium Sorbate, C. albicans ATCC#10203, Media PDB, inoculum 1.808E+06 CFU/ml",600 mg/L
same,MIC,"[4]; read-out: CB (MIC of compound B acting alone), B: Potassium Sorbate, C. albicans ATCC#10203, Media PDB, inoculum 5.726E+05 CFU/ml",1200 mg/L
O=C([O-])c1ccccc1.[Na+] [Sodium Benzoate],CB (MIC of compound B acting alone),"[1]; B: Sodium Benzoate, Media 1/10 TSB, inoculum 1.808E+05",30000 ppm
same,CB (MIC of compound B acting alone),"[1]; B: Sodium benzoate, Media 1/10TSB, inoculum 1.808E+06 CFU/ml",30000 ppm
same,CB (MIC of compound B acting alone),"[2]; B: Sodium Benzoate, Ps. aeruginosa ATCC#15442, 48 hrs, Media 1/10TSB, inoculum 5.727E+07 CFU/ml",14991 ppm
same,CB (MIC of compound B acting alone),"[3]; B: Sodium Benzoate, inoculum 1.156E+06",5998 ppm
same,CB (MIC of compound B acting alone),"[4]; B: Sodium Benzoate, C. albicans ATCC#10203, 48 hrs, Media PDB, inoculum 5.726E+05 CFU/ml",1200 ppm
same,Synergy of biocide paired with surfactant,any organism tested; paired with Surf. A,no synergy
O=[N+]([O-])C(CO)(CO)CO [TRIS NITRO],Synergy of biocide paired with surfactant,any organism tested; paired with Surf. A,no synergy
CCCCCCCCCCCCCC[P+](CCCC)(CCCC)CCCC.[Cl-] [TTPC],ratio of surfactant to biocide where synergy was observed,any organism tested; combination with Surf. E,1:0.2 or greater
